The assay deals with T1, β-catenin/BCL9 PPI (Homo sapiens, UniProt P35222).
T1 construct: Full-length β-catenin (residues 1-781) were cloned into a pET-28b vector; made in house; host or cells: E. coli BL21 DE3 (β-catenin); BCL9 peptide synthesized by InnoPep Inc
T1 sequence (P35222 1-781): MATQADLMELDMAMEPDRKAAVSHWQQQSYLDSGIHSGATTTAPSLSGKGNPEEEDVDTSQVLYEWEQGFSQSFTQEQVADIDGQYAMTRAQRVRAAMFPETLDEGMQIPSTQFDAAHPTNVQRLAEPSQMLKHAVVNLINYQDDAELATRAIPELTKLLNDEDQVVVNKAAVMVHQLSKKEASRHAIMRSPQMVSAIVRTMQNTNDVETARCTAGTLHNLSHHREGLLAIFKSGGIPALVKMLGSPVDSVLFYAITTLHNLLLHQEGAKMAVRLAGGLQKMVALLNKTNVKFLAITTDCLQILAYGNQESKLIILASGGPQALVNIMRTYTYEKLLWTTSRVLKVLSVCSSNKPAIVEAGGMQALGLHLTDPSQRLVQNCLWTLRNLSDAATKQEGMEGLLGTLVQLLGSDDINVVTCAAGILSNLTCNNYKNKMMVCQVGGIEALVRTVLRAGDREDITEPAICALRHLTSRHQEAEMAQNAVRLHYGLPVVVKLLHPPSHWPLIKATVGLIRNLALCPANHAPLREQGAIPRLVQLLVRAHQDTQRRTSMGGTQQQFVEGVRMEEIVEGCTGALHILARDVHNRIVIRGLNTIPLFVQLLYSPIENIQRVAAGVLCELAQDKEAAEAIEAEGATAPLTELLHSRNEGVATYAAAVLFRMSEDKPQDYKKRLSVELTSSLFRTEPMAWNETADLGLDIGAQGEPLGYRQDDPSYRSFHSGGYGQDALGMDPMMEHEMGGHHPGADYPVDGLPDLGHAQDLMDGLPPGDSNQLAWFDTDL
In words: AlphaScreen competitive inhibition assay of the β-catenin/BCL9 PPI. The format is binding. Here is the method:
AlphaScreen Assays of β-Catenin and BCL9 Interaction. Experiments were performed in white opaque 384-well plates from PerkinElmer (Waltham, Mass.), and the samples were read on a Synergy 2 plate reader (Biotek, Winooski, Vt.) with excitation at 680 nm and emission at 570 nm. The standard AlphaScreen protocol was used with a sensitivity setting of 200. All dilutions were made in 1× assay buffer containing 25 mM Hepes (pH 7.4), 100 mM NaCl, 0.01% Triton X-100 and 0.1% BSA to minimize nonspecific interactions.
For the β-catenin/BCL9 assay, 5 nM biotinylated BCL9 and 40 nM His6-tagged β-catenin were incubated in assay buffer at 4° C. for 30 min. For the β-catenin/E-cadherin assay, 10 nM biotinylated human E-cadherin, and 40 nM His6-tagged human β-catenin were added and incubated in assay buffer at 4° C. for 30 min. Different concentrations of the tested inhibitor were added and incubated in 20 μL assay buffer at 4° C. for another 1 h. All of the assay plates were covered and gently mixed on an orbital shaker. The donor and acceptor beads were then added to the plates to a final concentration of 10 μg/mL in […]. The mixture was incubated for 1 h at 4° C. before detection. The IC50 value was determined by nonlinear least-square analysis of GraphPad Prism 5.0. […] All of the experiments were performed in triplicate and carried out in the presence of 1% DMSO for small-molecule inhibitors. Each compound was assayed at least by two independent experiments. The results were expressed as mean±standard deviation. The inhibitor selectivity for β-catenin/BCL9 over β-catenin/E-canderin interactions was defined as the ratio of the respective Ki value of β-catenin/E-cadherin interactions over that of β-catenin/BCL9 interactions.

The mark [1] stands for this setting: Table 1, inhibitors 1-14, read-out: Ki.
The mark [2] stands for this setting: Table 12, inhibitors 109-112, read-out: Ki.
[3] abbreviates: Table 3, inhibitors 27-43, read-out: Ki.
The mark [4] stands for this setting: Table 10, inhibitors 99-106, racemic, read-out: Ki ± SD.
Where [5] appears, read: Table 5, inhibitors 54-62, read-out: Ki.
Where [6] appears, read: Table 2, inhibitors 15-26, read-out: Ki.
[7] abbreviates: Table 8, inhibitors 82-92, read-out: Ki.

Experimental findings from patent US20220411372A1, “SMALL-MOLECULE INHIBITORS FOR THE B-CATENIN/B-CELL LYMPHOMA 9 PROTEIN-PROTEIN INTERACTION” (H. Lee Moffitt Cancer Center and Research Institute, Inc., priority 2019, published 2022) are described below.

Where two headings read alike, the source gives them in different places.

In general, Ki refers to the equilibrium dissociation constant of an inhibitor or competing ligand from its target. Take `CC(C)c1ccc(CN(C(=O)[C@H]2CCCN(c3cccc(OC(C)(C)C(=O)O)c3)C2)C(C)C)cc1` [Compound 10, (S)-2-(3-(3-(isopropyl(4-isopropylbenzyl)carbamoyl)piperidin-1-yl)phenoxy)-2-methylpropanoic acid]: the Ki under setting [1] is at most 50 µM. Turning to `CC(C)(Oc1cncc(N2CCC[C@@H](C(=O)N(Cc3ccc(-c4cn[nH]c4)cc3)C3CC3)C2)c1)C(=O)N1CCNCC1` [Compound 112, (R)-4-(2-((5-(3-((4-(1H-pyrazol-4-yl)benzyl)(cyclopropyl)carbamoyl)piperidin-1-yl)pyridin-3-yl)oxy)-2-methylpropanoyl)piperazin-1-ium chloride], the inhibition constant (Ki) under setting [2] was at most 30 µM.

For `CC(C)(Oc1cccc(N2CCC[C@@H](C(=O)N(Cc3ccc(C(C)(C)C)cc3)C3CC3)C2)c1)C(=O)N1CCNCC1` [Compound 28, (R)-4-(2-(3-(3-((4-(tert-butyl)benzyl)(cyclopropyl)carbamoyl)piperidin-1-yl)phenoxy)-2-methylpropanoyl)piperazin-1-ium chloride], the Ki under setting [3] is at most 30 µM. Turning to `CC(C)(Oc1cccc(N2CCCC(C(=O)N(Cc3ccc(-c4ccco4)cc3)C3CC3)C2)c1)C(=O)O` (racemic) [Compound 105, 2-(3-(3-(cyclopropyl(4-(furan-2-yl)benzyl)carbamoyl)piperidin-1-yl)phenoxy)-2-methylpropanoic acid], the Ki under setting [4] is at most 90 µM. On to `CC(C)c1ccc(CN(C)C(=O)C2CCCN(c3cccc(OC(C)(C)C(=O)O)c3)C2)cc1` (racemic) [Compound 95, 2-(3-(3-((4-isopropylbenzyl)(methyl)carbamoyl)piperidin-1-yl)phenoxy)-2-methylpropanoic acid], for which the Ki (Table 9, inhibitors 93-98, racemic, read-out: Ki) is at most 90 µM. On to `CC(C)(Oc1cccc(N2CCC[C@@H](C(=O)N(Cc3ccc(-c4cn[nH]c4)cc3)C3CCC3)C2)c1)C(=O)N1CCNCC1` [Compound 49, (R)-4-(2-(3-(3-((4-(1H-pyrazol-4-yl)benzyl)(cyclobutyl)carbamoyl)piperidin-1-yl)phenoxy)-2-methylpropanoyl)piperazin-1-ium chloride], for which the Ki (Table 4, right half, inhibitors 49-53, read-out: Ki ± SD) is under 30 µM.

In the case of `CC(C)(Oc1cccc(N2CCC[C@@H](C(=O)N(Cc3ccc(-c4ccccn4)cc3)C3CC3)C2)c1)C(=O)N1CCNCC1` [Compound 33, (R)-4-(2-(3-(3-(cyclopropyl(4-(pyridin-2-yl)benzyl)carbamoyl)piperidin-1-yl)phenoxy)-2-methylpropanoyl)piperazin-1-ium chloride], the Ki under setting [3] was under 90 µM. `CC(C)(Oc1cccc(N2CCC[C@@H](C(=O)N(Cc3ccc(-c4cn[nH]c4)cc3)C3CC3)C2)c1)C(=O)N1CCOCC1` [Compound 56, (R)-N-(4-(1H-pyrazol-4-yl)benzyl)-N-cyclopropyl-1-(3-((2-methyl-1-morpholino-1-oxopropan-2-yl)oxy)phenyl)piperidine-3-carboxamide]: under setting [5], the Ki was over 90 µM. As to `CCN(Cc1ccc(C(C)C)cc1)C(=O)[C@H]1CCCN(c2cccc(OC(C)(C)C(=O)N3CCNCC3)c2)C1` [Compound 22, (S)-4-(2-(3-(3-(ethyl(4-isopropylbenzyl)carbamoyl)piperidin-1-yl)phenoxy)-2-methylpropanoyl)piperazin-1-ium chloride], the Ki under setting [6] is at most 30 µM. Regarding `CC(C)c1ccc(CCNC(=O)[C@H]2CCCN(c3cccc(OC(C)(C)C(=O)O)c3)C2)cc1` [Compound 14, (S)-2-(3-(3-((4-isopropylphenethyl)carbamoyl)piperidin-1-yl)phenoxy)-2-methylpropanoic acid], under setting [1], the Ki was at most 90 µM. For `CC(C)(Oc1cccc(N2CCC[C@@H](C(=O)N3CCc4cc(-c5ccccc5)ccc4C3)C2)c1)C(=O)N1CCNCC1` [Compound 91, (R)-4-(2-methyl-2-(3-(3-(6-phenyl-1,2,3,4-tetrahydroisoquinoline-2-carbonyl)piperidin-1-yl)phenoxy)propanoyl)piperazin-1-ium chlorine], under setting [7], the Ki is under 5 µM. Consider `CC(C)c1ccc(CCNC(=O)[C@@H]2CCCN(c3cccc(OC(C)(C)C(=O)O)c3)C2)cc1` [Compound 13, (R)-2-(3-(3-((4-isopropylphenethyl)carbamoyl)piperidin-1-yl)phenoxy)-2-methylpropanoic acid], for which the Ki under setting [1] was at most 50 µM. `Cc1noc(C)c1-c1ccc(CN(C(=O)[C@@H]2CCCN(c3cccc(OC(C)(C)C(=O)N4CCNCC4)c3)C2)C2CC2)cc1` [Compound 41, (R)-4-(2-(3-(3-(cyclopropyl(4-(3,5-dimethylisoxazol-4-yl)benzyl)carbamoyl)piperidin-1-yl)phenoxy)-2-methylpropanoyl)piperazin-1-ium chloride]: under setting [3], the Ki was under 30 µM.

Turning to `CC(C)c1ccc(COC(=O)[C@@H]2CCCN(c3cccc(OC(C)(C)C(=O)N4CCNCC4)c3)C2)cc1` [Compound 15, (R)-4-(2-(3-(3-(((4-isopropylbenzyl)oxy)carbonyl)piperidin-1-yl)phenoxy)-2-methylpropanoyl)piperazin-1-ium chloride], the Ki under setting [6] is at most 10 µM. With `CC(C)(Oc1cccc(N2CCC[C@@H](C(=O)N(Cc3ccc(-c4cn[nH]c4)cc3)C3CC3)C2)c1)C(=O)N1CCCCC1` [Compound 57, (R)-N-(4-(1H-pyrazol-4-yl)benzyl)-N-cyclopropyl-1-(3-((2-methyl-1-oxo-1-(piperidin-1-yl)propan-2-yl)oxy)phenyl)piperidine-3-carboxamide], under setting [5], the Ki is over 90 µM. As to `CC(C)c1ccc(CN(C)C(=O)[C@@H]2CCCN(c3cccc(OC(C)(C)C(=O)N4CCNCC4)c3)C2)cc1` [Compound 19, (R)-4-(2-(3-(3-((4-isopropylbenzyl)(methyl)carbamoyl)piperidin-1-yl)phenoxy)-2-methylpropanoyl)piperazin-1-ium chloride], the Ki under setting [6] was at most 30 µM. Turning to `O=C(c1cccc(N2CCC[C@@H](C(=O)N(Cc3ccc(-c4cn[nH]c4)cc3)C3CC3)C2)c1)N1CCNCC1` [Compound 85, (R)-4-(3-(3-((4-(1H-pyrazol-4-yl)benzyl)(cyclopropyl)carbamoyl)piperidin-1-yl)benzoyl)piperazin-1-ium chloride], under setting [7], the Ki was under 90 µM. As to `CC(C)(Oc1cccc(N2CCCC(C(=O)N(Cc3ccc(-c4cn[nH]c4)cc3)C3CC3)C2)c1)C(=O)O` (racemic) [Compound 99, 2-(3-(3-((4-(1H-pyrazol-4-yl)benzyl)(cyclopropyl)carbamoyl)piperidin-1-yl)phenoxy)-2-methylpropanoic acid], under setting [4], the Ki was over 90 µM. In the case of `CC(C)Oc1cc(-c2cn[nH]c2)ccc1CN(C(=O)[C@@H]1CCCN(c2cccc(OC(C)(C)C(=O)N3CCNCC3)c2)C1)C1CC1` [Compound 110, (R)-4-(2-(3-(3-(Cyclopropyl(2-isopropoxy-4-(1H-pyrazol-4-yl)benzyl)carbamoyl)piperidin-1-yl)phenoxy)-2-methylpropanoyl)piperazin-1-ium chloride], the Ki under setting [2] is at most 30 µM. Take `CC(C)c1ccc(CN(C(=O)[C@@H]2CCCN(c3cccc(OC(C)(C)C(=O)N4CCNCC4)c3)C2)C2CC2)cc1` [Compound 25, (R)-4-(2-(3-(3-(cyclopropyl(4-isopropylbenzyl)carbamoyl)piperidin-1-yl)phenoxy)-2-methylpropanoyl)piperazin-1-ium chloride]: the Ki under setting [6] was at most 5 µM. Consider `CCCOc1cc(-c2cn[nH]c2)ccc1CN(C(=O)[C@@H]1CCCN(c2cccc(OC(C)(C)C(=O)N3CCNCC3)c2)C1)C1CC1` [Compound 111, (R)-4-(2-(3-(3-(Cyclopropyl(2-propoxy-4-(1H-pyrazol-4-yl)benzyl)carbamoyl)piperidin-1-yl)phenoxy)-2-methylpropanoyl)piperazin-1-ium chloride], for which the Ki under setting [2] is at most 30 µM.
